Experimental data: patent publication US4594329A, “CRF analogs” (The Salk Institute for Biological Studies, priority 1984, dated 1986)
Square brackets hold non-standard residues; d marks the D form. Peptide text beside a SMILES is read from it. * marks the point of attachment. Nle = CCCC[C@H](N)C(=O)O; Orn = NCCC[C@H](N)C(=O)O; Bz = O=C(c1ccccc1)*

How the values were obtained:
[1] = test system: cultured rat pituitary cells; assay: secretion of ACTH and β-endorphin by cultured rat pituitary cells; format: cell-based; details: for secretion of ACTH and β-END-LI, amount relative to oCRF: % of oCRF; for secretion of ACTH and β-END-LI, amount relative to oCRF / stimulates the secretion of ACTH and β-END-LI: general procedure of Example III
Description: (§1) The synthetic peptide AHC and oCRF were examined for their effects on the secretion of ACTH and β-endorphin in vitro and was also in vivo. The potency of synthetic oCRF to stimulate the secretion of ACTH and β-endorphin by cultured rat pituitary cells was measured using the procedure as generally set forth in Endocrinology, 91, 562 (1972). […] In vivo testing is carried out using the general procedure set forth in C. Rivier et al., Science, 218, 377 (1982).

[2] = lowering of blood pressure, in vivo testing; details: for lowering of blood pressure: general procedure of Example III; for lowering of blood pressure compared with rCRF: comparison with rCRF
Description: as §1

Compound | lowering of blood pressure [2] | stimulates the secretion of ACTH and β-END-LI [1] | also measured
H-SQEPPISLDLTFHLLREVLEMTRADQLAQQAHSNRRLLDIA-NH2 [[Arg^23,36]-oCRF] | very significant lowering of blood pressure | – | secretion of ACTH and β-END-LI, amount relative to oCRF [1]: about 370%
H-YSEEPPISLDLTFHLLREVLEMARAEQLAEQAHSNRKLMEII-NH2 [[Tyr-Ser^1, Glu^29]-rCRF] | very significant lowering of blood pressure | stimulates the secretion of ACTH and β-END-LI | –
CCCC[C@H](NC(=O)[C@H](CCC(=O)O)NC(=O)[C@H](CC(C)C)NC(=O)[C@H](CCCC)NC(=O)[C@H](CCC(=O)O)NC(=O)[C@H](CCCNC(=N)N)NC(=O)[C@H](CC(C)C)NC(=O)[C@H](CC(C)C)NC(=O)[C@H](Cc1c[nH]cn1)NC(=O)[C@H](Cc1ccccc1)NC(=O)[C@@H](NC(=O)[C@H](CC(C)C)NC(=O)[C@H](CC(=O)O)NC(=O)[C@H](CC(C)C)NC(=O)[C@H](CO)NC(=O)[C@@H](NC(=O)[C@@H]1CCCN1C(=O)[C@@H]1CCCN1C(=O)[C@H](N)Cc1ccc(O)cc1)[C@@H](C)CC)[C@@H](C)O)C(=O)N[C@@H](C)C(=O)N[C@@H](CCCCN)C(=O)N[C@@H](C)C(=O)N[C@@H](CCC(=O)O)C(=O)N[C@@H](CCC(N)=O)C(=O)N[C@@H](CCC(=O)O)C(=O)N[C@@H](C)C(=O)N[C@@H](CCC(=O)O)C(=O)N[C@@H](CCC(N)=O)C(=O)N[C@@H](C)C(=O)N[C@@H](C)C(=O)N[C@@H](CC(C)C)C(=O)N[C@@H](CC(N)=O)C(=O)N[C@@H](CCCNC(=N)N)C(=O)N[C@@H](CC(C)C)C(=O)N[C@@H](CC(C)C)C(=O)N[C@@H](CC(C)C)C(=O)N[C@@H](CCC(=O)O)C(=O)N[C@@H](CCC(=O)O)C(=O)N[C@@H](C)C(N)=O [[D-Tyr^3, Nle^18,21]-AHC(3-41)] (H-[dY]PPISLDLTFHLLRE[Nle]LE[Nle]AKAEQEAEQAALNRLLLEEA-NH2) | very significant lowering of blood pressure | stimulates the secretion of ACTH and β-END-LI | –
CCCC[C@H](NC(=O)[C@H](CCC(=O)O)NC(=O)[C@H](CC(C)C)NC(=O)[C@H](CCCC)NC(=O)[C@H](CCC(=O)O)NC(=O)[C@H](CCCNC(=N)N)NC(=O)[C@H](CC(C)C)NC(=O)[C@H](CC(C)C)NC(=O)[C@H](Cc1c[nH]cn1)NC(=O)[C@H](Cc1ccccc1)NC(=O)[C@@H](NC(=O)[C@H](CC(C)C)NC(=O)[C@H](CC(=O)O)NC(=O)[C@H](CC(C)C)NC(=O)[C@H](CO)NC(=O)[C@@H](NC(=O)[C@@H]1CCCN1C(=O)[C@H]1CCCN1C(=O)[C@H](N)Cc1ccc(O)cc1)[C@@H](C)CC)[C@@H](C)O)C(=O)N[C@@H](C)C(=O)N[C@@H](CCCCN)C(=O)N[C@@H](C)C(=O)N[C@@H](CCC(=O)O)C(=O)N[C@@H](CCC(N)=O)C(=O)N[C@@H](CCC(=O)O)C(=O)N[C@@H](C)C(=O)N[C@@H](CCC(=O)O)C(=O)N[C@@H](CCC(N)=O)C(=O)N[C@@H](C)C(=O)N[C@@H](C)C(=O)N[C@@H](CC(C)C)C(=O)N[C@@H](CC(N)=O)C(=O)N[C@@H](CCCNC(=N)N)C(=O)N[C@@H](CC(C)C)C(=O)N[C@@H](CC(C)C)C(=O)N[C@@H](CC(C)C)C(=O)N[C@@H](CCC(=O)O)C(=O)N[C@@H](CCC(=O)O)C(=O)N[C@@H](C)C(N)=O [[D-Tyr^3, D-Pro^4, Nle^18,21]-AHC(3-41)] (H-[dY][dP]PISLDLTFHLLRE[Nle]LE[Nle]AKAEQEAEQAALNRLLLEEA-NH2) | very significant lowering of blood pressure | – | secretion of ACTH and β-END-LI, amount relative to oCRF [1]: about 470%
H-SQEPPISLDLTFALLREMLEMAKAEQEAEQAALNRLLLEEA-NH2 [[Ala^13]-AHC] | very significant lowering of blood pressure | stimulates the secretion of ACTH and β-END-LI | –
Ac-PPISLDLTFHLLREVLEMARAEQLAEQAHSNRKYMEEI-NH2 | very significant lowering of blood pressure | stimulates the secretion of ACTH and β-END-LI | lowering of blood pressure compared with rCRF [2]: to a greater extent than rCRF
H-PPISIDLSLELLRKMIEIAKQEKEKEQAANNRLLMDTI-NH2 | very significant lowering of blood pressure | stimulates the secretion of ACTH and β-END-LI | –
CC[C@H](C)[C@H](NC(=O)[C@H](CC(=O)O)NC(=O)[C@H](CC(C)C)NC(=O)[C@H](CC(C)C)NC(=O)[C@H](CCCCN)NC(=O)[C@H](CCCNC(=N)N)NC(=O)[C@H](CC(N)=O)NC(=O)[C@H](CO)NC(=O)[C@H](Cc1c[nH]cn1)NC(=O)[C@H](C)NC(=O)[C@H](CCC(N)=O)NC(=O)[C@H](CCC(N)=O)NC(=O)[C@H](C)NC(=O)[C@H](CC(C)C)NC(=O)[C@H](CCC(N)=O)NC(=O)[C@H](CC(=O)O)NC(=O)[C@H](C)NC(=O)[C@H](CCCCN)NC(=O)[C@H](CC(=O)O)NC(=O)[C@H](CCSC)NC(=O)[C@H](CCC(=O)O)NC(=O)[C@H](CC(C)C)NC(=O)[C@@H](NC(=O)[C@H](CCC(=O)O)NC(=O)[C@H](CCCNC(=N)N)NC(=O)[C@H](CC(C)C)NC(=O)[C@H](CC(C)C)NC(=O)[C@H](Cc1c[nH]cn1)NC(=O)[C@H](Cc1ccccc1)NC(=O)[C@@H](NC(=O)[C@H](CC(C)C)NC(=O)[C@H](CC(=O)O)NC(=O)[C@H](CC(C)C)NC(=O)[C@H](CO)NC(=O)[C@@H](NC(=O)[C@H]1CCCN1)[C@@H](C)CC)[C@@H](C)O)C(C)C)C(=O)N[C@@H](C)C(N)=O [[D-Pro^4,Asp^22]-oCRF(4-41)] (H-[dP]ISLDLTFHLLREVLEMDKADQLAQQAHSNRKLLDIA-NH2) | very significant lowering of blood pressure | stimulates the secretion of ACTH and β-END-LI | –
H-SQEPPISLDLTFHLLRE[Nle]LE[Nle]TKADQLRQQAHSNRKLLDIA-NH2 [[Nle^18,21,Arg^28]-oCRF] | very significant lowering of blood pressure | stimulates the secretion of ACTH and β-END-LI | –
CCCC[C@H](NC(=O)[C@@H](NC(=O)[C@H](CC(C)C)NC(=O)[C@H](CC(=O)O)NC(=O)[C@H](CC(C)C)NC(=O)[C@H](CO)NC(=O)[C@@H](NC(=O)[C@@H]1CCCN1C(=O)[C@@H]1CCCN1C(=O)[C@H](CCC(=O)O)NC(=O)CNC(=O)c1ccccc1)[C@@H](C)CC)[C@@H](C)O)C(=O)N[C@@H](Cc1c[nH]cn1)C(=O)N[C@@H](CC(C)C)C(=O)N[C@@H](CC(C)C)C(=O)N[C@@H](CCCNC(=N)N)C(=O)N[C@@H](CCC(=O)O)C(=O)N[C@H](C(=O)N[C@@H](CC(C)C)C(=O)N[C@@H](CCC(=O)O)C(=O)N[C@@H](CCSC)C(=O)N[C@@H](C)C(=O)N[C@@H](CCCNC(=N)N)C(=O)N[C@@H](C)C(=O)N[C@@H](CCC(=O)O)C(=O)N[C@@H](CCC(N)=O)C(=O)N[C@@H](CC(C)C)C(=O)N[C@@H](C)C(=O)N[C@@H](CCC(=O)O)C(=O)N[C@@H](CCC(N)=O)C(=O)N[C@@H](C)C(=O)N[C@@H](Cc1c[nH]cn1)C(=O)N[C@@H](CO)C(=O)N[C@@H](CC(N)=O)C(=O)N[C@@H](CCCNC(=N)N)C(=O)N[C@@H](CCCNC(=N)N)C(=O)N[C@@H](CC(C)C)C(=O)N[C@@H](CCSC)C(=O)N[C@@H](CCC(=O)O)C(=O)N[C@H](C(=O)N[C@H](C(N)=O)[C@@H](C)CC)[C@@H](C)CC)C(C)C (Bz-GEPPISLDLT[Nle]HLLREVLEMARAEQLAEQAHSNRRLMEII-NH2) | very significant lowering of blood pressure | stimulates the secretion of ACTH and β-END-LI | –
H-SEEPPISLDLTFHLLREVLEMTRAEQLAEQAHSNRKLMEEI-NH2 [[Thr^22, Glu^29,40]-rCRF] | very significant lowering of blood pressure | stimulates the secretion of ACTH and β-END-LI | –
H-SQEPPISLDLTLELLREMLEMAKAEQEAEQAALNRLYLEEA-NH2 [[Leu^12, Glu^13, Tyr^37]-AHC] | very significant lowering of blood pressure | stimulates the secretion of ACTH and β-END-LI | –
H-SEEPPISLELTFHLLREVLE[Nle]ARAEQLAEQAHLNRKLMEII-NH2 [[Glu^9, Nle^21, Glu^29, Leu^33]-rCRF] | very significant lowering of blood pressure | stimulates the secretion of ACTH and β-END-LI | lowering of blood pressure compared with rCRF [2]: to a greater extent than rCRF
H-SEEPPISLDLTFHLLREVLE[Nle]ARAEQLAQQAYLNRKLMEEI-NH2 [[Nle^21, Tyr^32, Leu^33, Glu^40]-rCRF] | very significant lowering of blood pressure | stimulates the secretion of ACTH and β-END-LI | lowering of blood pressure compared with rCRF [2]: to a greater extent than rCRF
H-SEEPPISLDLTLELLREMLEME[Orn]AEKEAEQAALNRLLLEEA-NH2 | very significant lowering of blood pressure | stimulates the secretion of ACTH and β-END-LI | –
H-SQEPPISLDLTFHLLREMLEMAKAEQEAEQAALNRLLLEEA-NH2 [AHC] | – | – | EC50 ([1]; cultured rat pituitary cells, read-out: concentration giving half-maximal responses, secretion of ACTH and β-endorphin): ~0.065 nM; potency ([1]; general statement, compared with native CRF, test not named): particularly potent; secretory response to maximal concentrations ([1]; maximal (1-5 nM) concentrations): at a plateau level
